Laboratory results from the SangsterLogP compilation.

Settings: pH 7.4

Row | logD | SMILES
1 | 3.71 | CC(C)CC(O)C(CC1CCCCC1)NC(=O)C(Cc1cn(C)cn1)NC(=O)C(CC(=O)N1CCOCC1)Cc1ccccc1 (stereo not given)
2 | 4.02 | CC(C)CC(O)C(O)C(CC1CCCCC1)NC(=O)C(NC(=O)C(CC(=O)N1CCN(C)CC1)Cc1ccccc1)c1cc[nH]n1 (stereo not given)
3 | 3.79 | CC(C)CC(O)C(CC1CCCCC1)NC(=O)C(Cn1ccnc1)NC(=O)C(CC(=O)N1CCOCC1)Cc1ccccc1 (stereo not given)
4 | 3.91 | CC(C)CC(O)C(O)C(CC1CCCCC1)NC(=O)C(Cc1cscn1)NC(=O)C(CC(=O)CN1CCCOCC1)Cc1ccccc1 (stereo not given)
5 | 3.51 | CC(C)CC(O)C(CC1CCCCC1)NC(=O)C(Cc1c[nH]cn1)NC(=O)C(CC(=O)N1CCOCC1)Cc1ccccc1 (stereo not given)
6 | 4.01 | CC(C)CC(O)C(CC1CCCCC1)NC(=O)C(Cc1cc[nH]n1)NC(=O)C(CC(=O)N1CCCOCC1)Cc1ccccc1 (stereo not given)
7 | 4.1 | CC(C)CC(O)C(CC1CCCCC1)NC(=O)C(CN=[N+]=[N-])NC(=O)C(CC(=O)N1CCCOCC1)Cc1ccccc1 (stereo not given)
8 | 4.27 | CC(C)CC(O)C(CC1CCCCC1)NC(=O)C(Cc1cscn1)NC(=O)C(CC(=O)N1CCOCC1)Cc1ccccc1 (stereo not given)
9 | 1.66 | CC(C)CC(O)C(O)C(CC1CCCCC1)NC(=O)C(NC(=O)C(CC(=O)N1CCN(C)CC1)Cc1ccccc1)c1c[nH]cn1 (stereo not given)
10 | 3.38 | COc1ccc(CC(CC(=O)N2CCN(C)CC2)C(=O)NC(Cc2cscn2)C(=O)NC(CC2CCCCC2)C(O)C(O)CC(C)C)cc1 (stereo not given)
